# Experimental data reported in ChEMBL document CHEMBL1157035, “Synthesis and biological evaluation of water-soluble organogermanium” (Eur J Med Chem, 2010).
# Activity calls are given as the source filed them. No cut-off for these calls is given here.
# Tests used:
# Format in all cases: functional, organism-based
# Mus musculus [1] = assay: Immunoregulatory activity in ICR mouse assessed as increase in serum IFN-gamma level at 300 mg/kg, po after 24 hrs by ELISA; set-up: dose 300 mg/kg
# Mus musculus [2] = assay: Immunoregulatory activity in ICR mouse assessed as increase in serum IFN-gamma level at 100 mg/kg, po after 12 to 24 hrs by ELISA; set-up: dose 100 mg/kg
# Mus musculus [3] = assay: Immunoregulatory activity in ICR mouse assessed as increase in serum IFN-gamma level at 100 mg/kg, po after 12 hrs by ELISA; set-up: dose 100 mg/kg
# Mus musculus [4] = assay: Immunoregulatory activity in po dosed ICR mouse assessed as increase in serum IFN-gamma level after 24 hrs by ELISA
# Mus musculus [5] = assay: Immunoregulatory activity in ICR mouse assessed as increase in serum IFN-gamma level at 100 mg/kg, po after 24 hrs by ELISA; set-up: dose 100 mg/kg
Substance,Activity (Mus musculus [1]) [pg/mL],Activity (Mus musculus [2]),Activity (Mus musculus [3]),Activity (Mus musculus [4]),Activity (Mus musculus [5]) [pg/mL]
6-O-[3-(trimethylgermyI)propyl]-beta-D-glucopyranoside,600,Active,inactive,Dose-dependent effect,–
GERMANIUM SESQUIOXIDE,–,Active,inactive,–,320
